Values quoted from earlier work, collected in patent US20110009373A1, “COMPOSITION COMPRISING A COMBINATION OF AN AROMATASE INHIBITOR, A PROGESTIN AND AN OESTROGEN AND ITS USE FOR THE TREATMENT OF ENDOMETRIOSIS” (ASTRAZENECA AB, priority 2003, published 2011).

Test system: endometriotic lesion
Settings: addition of oestrogen to letrozole; wild type mice and aromatase knockout mice

Compound: N#Cc1ccc(C(c2ccc(C#N)cc2)n2cncn2)cc1 [letrozole]
- Endometriotic lesion sizes: increases in the endometriotic lesion sizes
